In patent publication US20240238259A1, “COMBINATION THERAPY FOR PULMONARY HYPERTENSION” (VIVUS LLC, priority 2015, published 2024):
Like-named read-outs stand apart in the source and are kept apart here.

Key:
[1] = tested on: BMPR2 signaling (BRE from the Id1 promoter linked to luciferase, C2C12 mouse myoblastoma reporter cells); assay: BRE-Luc reporter high throughput screen for compounds that increase BMPR2 signaling; format: cell-based; conditions: screen of library of >3,600 compounds
Protocol: A C2C12 mouse myoblastoma reporter cells line where the BRE (BMP Response Element) from the Id1 promoter (a main downstream target of BMP signaling) was linked to luciferase (BRE-Luc) was used to identify compounds that increase BMPR2 signaling. Thus, activation of the BMP pathway was measured by luminescence. A high throughput screen of a library containing greater than 3,600 compounds was used.

[2] = tested on: PAH patients; conditions: for symptoms and exercise capacity: within 1 month of initiation, ambrisentan
[3] = tested on: patients with PAH; assay: Phase IIA randomized, double-blind, placebo-controlled clinical trial of tacrolimus in PAH (NCT01647945); format: in vivo, human
Protocol: Tacrolimus was selected as the agent for increasing BMPR2 signaling. A phase IIA trial to assess the safety and tolerability of different doses tacrolimus (goal blood level <2 ng/ml, 2-3 ng/ml, 3-5 ng/ml) vs Placebo was conducted (Clinical Trials Identifier: NCT01647945). The secondary endpoints were change in clinical worsening, change in 6-min walk distance, NT-pro BNP, Uric Acid, and novel echo parameters. The phase IIA trial was a single center trial with 23 patients. This study was open to male or female subjects, 18-70 years of age, with pulmonary hypertension. The Inclusion and Exclusion criteria used are below:
• 1. Age ≥18 and <70 years • 2. Diagnosis of WHO Group I Pulmonary Arterial Hypertension (PAH) (Idiopathic (I)PAH, Heritable PAH (including Hereditary Hemorrhagic Telangiectasia), Associated (A)PAH (including collagen vascular disorders, drugs+toxins exposure, congenital heart disease, and portopulmonary disease). • 3. Stable on active PAH treatment including any prostacycline or phosphodiesterase inhibitors and the endothelin antagonist Ambrisentan alone or in combination (stability defined as: <10% change in 6 MWD, no change in NYHA class, no hospitalization or addition of PAH therapy for at least 3 months). • 4. Previous Right Heart Catheterization (RHC) that documented: • a. Mean PAP ≥25 mmHg. • b. Pulmonary capillary wedge pressure <15 mmHg. • c. Pulmonary Vascular Resistance ≥3.0 Wood units or 240 dynes/see/cm5 • 5. All NYHA/WHO functional classes. • 6. Willingness of female subjects to use birth control, or be post-menopausal, or status post hysterectomy.
• 1. WHO Group II-V Pulmonary Hypertension. • 2. Current or prior experimental PAH treatments within the last 6 months (including but not limited to tyrosine kinase inhibitors, rho-kinase inhibitors, or cGMP modulators). • 3. Current active treatment with the dual endothelin receptor antagonist bosentan. • 4. Total lung Capacity (TLC)<60% predicted; if TLC b/w 60 and 70% predicted, high resolution computed tomography must be available to exclude significant interstitial lung disease. • 5. Forced expiratory volume (FEV1)/Forced Vital Capacity (FVC)<70% predicted and FEV1<60% predicted • 6. Significant left-sided heart disease (based on screening Echocardiogram): • a. Significant aortic or mitral valve disease • b. Diastolic dysfunction≥Grade II • c. Left Ventricle (LV) systolic function <45% • d. Pericardial constriction • e. Restrictive cardiomyopathy • f. Significant coronary disease with demonstrable ischemia. • 7. Chronic renal insufficiency defined as an estimated creatinine clearance <30 ml/min (by Modification of diet in renal disease (MDRD) equation). • 8. Current atrial arrhythmias not under optimal control. • 9. Uncontrolled systemic hypertension: SBP>160 mm or DBP>100 mm • 10. […]

[4] = all three patients, first 3-6 months
[5] = patient #1, after 3 months of treatment
[6] = patient #1, baseline, 3 and 6 months
[7] = patient #2, 12 months follow-up
[8] = patient #2, baseline, 3 and 6 months
[9] = patient #2, within 3 months of treatment

Q: What does the source list for `C=CC[C@@H]1/C=C(\C)C[C@H](C)C[C@H](OC)[C@H]2O[C@@](O)(C(=O)C(=O)N3CCCC[C@H]3C(=O)O[C@H](/C(C)=C/[C@@H]3CC[C@@H](O)[C@H](OC)C3)[C@H](C)[C@@H](O)CC1=O)[C@H](C)C[C@@H]2OC` [Tacrolimus, tacrolimus]?
A: BMPR2 signaling (activation of the BMP pathway measured by luminescence) [1]: increased BMPR2 signaling; REVEAL risk score ([2]; all 3 patients): improved; hospital admission for worsening of heart failure ([2]; all three patients, during treatment): None of the patients was admitted; 6 MWD [2, 4]: increase; NT-pro BNP [2, 4]: decrease; tolerability ([2]; human, in vivo): tolerated low-dose tacrolimus very well; infections ([2]; human, in vivo, iv): did not report an increase of infections; symptoms and exercise capacity ([2]; patient #1 (IPAH), trough goal 1.5-2.5 ng/mL, on epoprostenol, sildenafil): substantial improvement; PAH associated hospitalizations ([2]; patient #1, 12 months after initiation (3 in the 12 months prior)): free of any PAH associated hospitalizations; NT-proBNP [2, 5]: 678 pg/mL; NYHA class symptoms [2, 5]: NYHA Class I; improvement in 6 MWD [2, 5]: approximately 100 meters; lowering of NT-proBNP [2, 5]: > 50%; RV ejection fraction (RVEF), cMRI [2, 6]: stable; RV end-diastolic volume index (RVEDVi), cMRI [2, 6]: stable; RV stroke volume index (RVSVi), cMRI [2, 6]: increased; cardiac index (CI), cMRI [2, 6]: increased; REVEAL risk score ([2]; patient #1, on treatment (11 at transplant listing)): 3; lung transplant list status ([2]; patient #1, within 2 months): placed on a status 7 (hold) for transplantation; symptoms and exercise capacity ([2]; patient #2 (systemic sclerosis associated PAH), on treprostinil, sildenafil, dopamine): some improvement; PAH related hospitalizations ([2]; patient #2, 12 months after initiation (4 in the 15 months prior)): free from any PAH related hospitalizations; CO [2, 7]: 3.4 L/min; NT-pro BNP [2, 7]: 1,895 pg/mL; NT-pro BNP reduction compared to baseline [2, 7]: 30%; NYHA symptoms [2, 7]: stable NYHA III symptoms; PAWP [2, 7]: 10 mmHg; PVR [2, 7]: 14.1 WU; SVO2 [2, 7]: 59%; increase in 6 MWD [2, 7]: 94 meter; mPAP [2, 7]: 58 mmHg; mRAP [2, 7]: 7 mmHg; CI, cMRI [2, 8]: improvement; RVEDVi, cMRI [2, 8]: stable; RVEF, cMRI [2, 8]: substantial improvement; RVSVi, cMRI [2, 8]: improvement; REVEAL risk score ([2]; patient #2, on treatment (from 12)): 11; NT-pro BNP ([2]; patient #2, within 1 month (from 2,669)): 1,895 pg/mL; 6 MWD improved by [2, 9]: 18 meters; NT-pro BNP [2, 9]: 1,580 pg/mL; NYHA symptoms [2, 9]: stable NYHA III symptoms; symptoms ([2]; patient #3 (drugs and toxins associated PAH), over a 5-months period, on treprostinil, sildenafil): symptomatic improvement; BMPR2 signaling (biomarker data) ([3]; PAH patients): increase in BMPR2 signaling; drug-related serious adverse events ([3]; all tested doses): no drug-related serious adverse events; incidences of hypertension or cardiovascular events ([3]; all tested doses): no incidences of hypertension or cardiovascular events; tolerability ([3]; all tested doses (goal blood level <2, 2-3, 3-5 ng/ml)): well tolerated
